Results taken from the NIST ThermoML archive (doi:10.1021/acs.jced.7b01128).
Where “and” joins values, the source holds several entries; their conditions need not be identical. Equal values may be shown once.

Columns and labels:
[1] = Liquid, Ebulliometric method (Recirculating still)
[2] = refractive index (Na D-line) (dimensionless); conditions: 101.33 kPa, Liquid, Standard Abbe refractometry

CCCCO [butan-1-ol]
Conditions | refractive index, 298.15 K | vapor or sublimation pressure, 353.15 K [kPa] | vapor or sublimation pressure, 363.15 K [kPa] | vapor or sublimation pressure, 366.75 K [kPa] | vapor or sublimation pressure, 373.15 K [kPa] | vapor or sublimation pressure, 379.55 K [kPa] | vapor or sublimation pressure, 383.15 K [kPa] | vapor or sublimation pressure, 384.35 K [kPa] | vapor or sublimation pressure, 390.75 K [kPa]
[1] | – | 21.73 | 34.13 | 39.99 | 51.86 | 66.66 | 76.52 | 79.99 | 100.78
[2] | 1.397 | – | – | – | – | – | – | – | –

C1COCCN1 [tetrahydro-1,4-oxazine]
Conditions | refractive index | vapor or sublimation pressure
[1], 343.15 K | – | 13.06 kPa
[1], 353.15 K | – | 19.73 kPa
[1], 363.15 K | – | 28.93 kPa
[1], 372.15 K | – | 39.99 kPa
[1], 373.15 K | – | 41.32 kPa
[1], 380.75 K | – | 53.33 kPa
[1], 383.15 K | – | 57.86 kPa
[1], 387.55 K | – | 66.66 kPa
[1], 393.35 K | – | 79.99 kPa
[1], 393.45 K | – | 79.99 kPa
[1], 401.15 K | – | 101.05 kPa and 100.78 kPa
[2], 293.15 K | 1.455 | –

CC(C)CCO [3-methylbutan-1-ol]
Conditions | refractive index, 298.15 K | vapor or sublimation pressure, 343.15 K [kPa] | vapor or sublimation pressure, 386.05 K [kPa] | vapor or sublimation pressure, 392.15 K [kPa] | vapor or sublimation pressure, 397.15 K [kPa] | vapor or sublimation pressure, 403.95 K [kPa]
[1] | – | 7.73 | 53.33 | 66.66 | 79.99 | 101.05
[2] | 1.403 | – | – | – | – | –
